The values that follow come from BindingDB's records for PubMed 37302340 (Chengdu University of Traditional Chinese Medicine).

The test addresses 5'-nucleotidase CD73 (Homo sapiens) (UniProt P21589). The test is described as follows: Binding affinity to human recombinant CD73 expressed in Sf9 cells assessed as inhibition constant by malachite green based spectrophotometer assay.

By Ki is commonly meant the dissociation constant of the complex between target and ligand, obtained from inhibition or displacement.

5'-nucleotidase CD73 (Homo sapiens), sequence (P21589 whole entry, looked up): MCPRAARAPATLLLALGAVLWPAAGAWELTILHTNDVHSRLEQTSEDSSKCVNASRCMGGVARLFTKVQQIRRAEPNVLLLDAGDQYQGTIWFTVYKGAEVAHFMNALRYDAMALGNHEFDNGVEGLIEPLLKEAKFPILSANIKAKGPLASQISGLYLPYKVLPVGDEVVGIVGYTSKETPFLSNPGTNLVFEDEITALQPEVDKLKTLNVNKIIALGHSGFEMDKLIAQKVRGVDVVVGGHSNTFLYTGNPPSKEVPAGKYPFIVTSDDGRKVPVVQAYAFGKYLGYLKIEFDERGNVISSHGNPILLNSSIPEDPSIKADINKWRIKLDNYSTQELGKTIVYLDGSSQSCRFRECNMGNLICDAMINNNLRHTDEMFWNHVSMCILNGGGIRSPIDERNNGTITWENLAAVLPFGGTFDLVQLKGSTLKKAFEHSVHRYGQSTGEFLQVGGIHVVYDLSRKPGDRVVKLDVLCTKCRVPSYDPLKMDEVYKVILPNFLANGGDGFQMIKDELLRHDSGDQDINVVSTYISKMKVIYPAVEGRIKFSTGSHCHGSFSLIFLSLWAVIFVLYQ

On to `CCN(CC)c1nc(Cl)nc2c1ncn2[C@@H]1O[C@H](COCP(=O)(O)OP(=O)(O)C(Br)(Br)P(=O)(O)O)[C@@H](O)[C@H]1O`, for which the Ki stood at 0.097 µM.
